Source: patent US8796258B2, “Cyclic azabenzimidazole derivatives useful as anti-diabetic agents” (Merck Sharp & Dohme Corp., priority 2011, dated 2014)

Columns and labels:
ob/ob and db/db mice = conditions: cited from earlier work
[1] = tested on: rats displaying characteristics of insulin resistance syndrome; conditions: rat, in vivo; cited from earlier work
[2] = tested on: obese Zucker (fa/fa) rats; conditions: 7 week administration; cited from earlier work
[3] = molecular target: T1, recombinant human AMPK complex 1 (containing α1β1γ1) (Homo sapiens, UniProt Q13131+Q9Y478); experiment: AMPKSAMSF in vitro AMPK activation assay; format: biochemical; conditions: recombinant human AMPK complex 1 (α1β1γ1); for Emax: 10-point titration, read-out: % Maximum AMP Activation of human AMPK Complex 1; for EC50: inflection point reflecting 50% of the maximum activation
T1 construct: made in house; host or cells: Spodoptera frugiperda Sf21 cells, baculovirus (pBacPak9 clones, triple infection)
T1 sequence (Q13131 whole entry): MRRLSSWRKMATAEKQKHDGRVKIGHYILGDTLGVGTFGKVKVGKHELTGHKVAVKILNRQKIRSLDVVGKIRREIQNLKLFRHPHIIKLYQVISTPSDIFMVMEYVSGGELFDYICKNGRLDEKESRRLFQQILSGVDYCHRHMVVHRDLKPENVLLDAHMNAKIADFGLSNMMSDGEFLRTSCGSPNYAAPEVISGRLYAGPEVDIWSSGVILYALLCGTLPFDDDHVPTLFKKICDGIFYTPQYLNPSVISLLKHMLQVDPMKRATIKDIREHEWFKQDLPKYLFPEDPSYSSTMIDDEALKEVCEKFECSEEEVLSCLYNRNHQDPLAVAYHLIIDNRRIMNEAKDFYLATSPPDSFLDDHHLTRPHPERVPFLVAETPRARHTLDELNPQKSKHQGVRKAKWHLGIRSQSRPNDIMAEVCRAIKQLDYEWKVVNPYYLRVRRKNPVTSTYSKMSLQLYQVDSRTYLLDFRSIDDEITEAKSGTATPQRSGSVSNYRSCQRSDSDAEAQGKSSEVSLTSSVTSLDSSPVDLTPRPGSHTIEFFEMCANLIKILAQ
T1 sequence (Q9Y478 whole entry): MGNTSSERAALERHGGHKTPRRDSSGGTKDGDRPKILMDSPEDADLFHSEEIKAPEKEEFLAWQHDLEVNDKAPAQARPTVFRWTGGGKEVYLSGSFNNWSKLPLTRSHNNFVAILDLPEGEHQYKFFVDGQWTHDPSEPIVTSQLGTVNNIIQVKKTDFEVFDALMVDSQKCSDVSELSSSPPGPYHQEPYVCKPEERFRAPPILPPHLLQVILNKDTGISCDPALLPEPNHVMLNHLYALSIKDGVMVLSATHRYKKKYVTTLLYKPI
T1 sequence (P54619 whole entry partner): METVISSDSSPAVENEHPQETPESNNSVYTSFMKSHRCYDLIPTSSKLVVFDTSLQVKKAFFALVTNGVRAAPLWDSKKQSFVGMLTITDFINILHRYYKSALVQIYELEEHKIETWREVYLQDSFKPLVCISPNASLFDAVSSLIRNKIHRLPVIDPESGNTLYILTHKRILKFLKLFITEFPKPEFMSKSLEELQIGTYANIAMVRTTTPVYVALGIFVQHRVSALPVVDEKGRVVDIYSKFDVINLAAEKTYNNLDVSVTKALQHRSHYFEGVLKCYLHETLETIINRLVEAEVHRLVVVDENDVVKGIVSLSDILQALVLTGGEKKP
Experimental: The recombinant human AMPK complex 1 (containing α1β1γ1) was obtained from baculovirus expression system. Recombinant viruses were generated by cotransfection of AMPK/pBacPak9 clones with Baculogold baculovirus DNA (Pharmingen) in spodoptera frugiperda 21 cells according to the manufacturer's instructions. Each round of virus amplification was performed for 5 days in Grace's medium containing 10% serum. Virus that had been subjected to three rounds of amplification was used for all protein production procedures. To express the AMPK complex, sf21 cells were adapted to serum free medium (SF900 II, Invitrogen) by sequential dilution from serum containing stocks into SF9001I medium and maintained in shaker flasks at 90 rpm at 27° C. The recombinant AMPK enzyme complex was produced by triple infection, one recombinant virus for each of the subunits, in sf21 cells under serum free conditions. Cells were infected in log phase, 1×10^6 cells/ml, at a multiplicity of infection of […]. Cells were harvested by centrifugation at 10,000×g for 15 minutes after 72 hours of infection with viruses. The insect cell pellet from 2 liters of culture was resuspended in 50 ml lysis buffer (20 mM Tris-HCl, 50 mM NaCl, 50 mM NaF, 30 mM Na PPi, 0.25 M sucrose, 10 mM ZnCl2, 2 mM DTT, 0.4 mg/ml digitonin) and subjected to two cycles of freeze-thaw lysis in a dry-ice ethanol bath. Insoluble material was removed by centrifugation at 10,000×g and the supernatant was fractionated with use of polyethylene glycol (PEG). The protein fraction precipitating between 2.5 and 6% PEG was used for further purification using a Blue-Sepharose step (Zhou et al, J. Clin. Invest. 108, 1167-1174, 2001).
The in vitro AMPK activation assay is performed in a volume of 30 μl in a 384-well plate. Enzyme reactions were assembled in the microtiter plate by adding 15 μl of 2× enzyme in assay buffer (20 mM HEPES, pH 7.3, 5 mM MgCl2, 3 mM DTT, 0.01% Brij 35 and CamK Kinase, to activate AMPK) to wells which contained either DMSO or compound. The reaction was initiated with the addition of 15 μl 2× substrate mixture containing 200 μM ATP, and 3.0 μM fluorescently labeled SAMS (5-FAM-HMRSAMSGLHLVKRR-COOH) in assay buffer. After 45-minute incubation at 25° C., the reaction was stopped by the addition of 70 μl stop buffer (100 mM HEPES, pH 7.3, 40 mM EDTA, 0.015% Brij 35). Phosphorylated 5-FAM SAMS product is assessed using a Caliper EZ Reader LabChip microfluidics reader. Product conversion is determined by calculating the peak heights of the substrate and product and reporting the product/(product+substrate) peak ratio. The 10-point titration data were expressed as % maximum AMP activation. The results were plotted using 4 parameter fit and the inflection point reflecting 50% of the maximum activation was reported as the EC50.

| SMILES | Emax [3] [%] | EC50 [3] [nM] | other results |
| --- | --- | --- | --- |
| NC(=O)c1ncn([C@@H]2O[C@H](CO)[C@@H](O)[C@H]2O)c1N [AICAR] |  |  | glucose homeostasis (ob/ob and db/db mice; insulin-resistant diabetic (ob/ob) mice): improvement in glucose homeostasis; blood glucose reduction (ob/ob and db/db mice; ob/ob and db/db mice, following 8 weeks of administration): 35%; blood pressure [1]: reduction of blood pressure; HDL cholesterol [2]: increase in HDL cholesterol; glucose metabolism as assessed by an oral glucose tolerance test [2]: normalization of glucose metabolism; plasma triglycerides and free fatty acids [2]: reduction in plasma triglycerides and free fatty acids |
| Cc1ccc(Oc2nc3nc(-c4ccc(N5CCCC5)cc4)c(Cl)cc3[nH]2)cc1C(=O)O [Example 3] | 681 | 1 |  |
| O=C(O)[C@H]1CC[C@H](Oc2nc3nc(-c4ccc(-c5ccccc5)cc4)c(Cl)cc3[nH]2)CC1 [Example 29] | 798 | 7 |  |
| O=C(O)C1CCC(Oc2nc3nc(-c4ccc(N5CCCC5)cc4)c(Cl)cc3[nH]2)CC1 (centres unmarked) [Example 30] | 852 |  |  |
| O=C(O)[C@H]1CC[C@H](Oc2nc3nc(-c4ccc(N5CCCC5)cc4)c(Cl)cc3[nH]2)CC1 [Example 30] |  | 24 |  |
| CS(=O)(=O)c1ccc(-c2ccc(-c3nc4nc(O[C@H]5CC[C@H](C(=O)O)CC5)[nH]c4cc3Cl)cc2)cc1 [Example 79, Trans-4-({6-chloro-5-[4′-(methylsulfonyl)biphenyl-4-yl]-1H-imidazo[4,5-b]pyridin-2-yl}oxy)cyclohexanecarboxylic acid] | 661 | 5 |  |
| OCC1(CO)CC(Oc2nc3nc(-c4ccc(-c5ccccc5)cc4)c(Cl)cc3[nH]2)C1 [Example 111] | 813 | 28 |  |
| CC(C)(O)[C@H]1C[C@@H](Oc2nc3nc(-c4ccc(-c5ccc(S(C)(=O)=O)cc5)cc4)c(Cl)cc3[nH]2)C1 [Example 130, 2-[cis-3-({6-chloro-5-[4′-(methylsulfonyl)biphenyl-4-yl]-1H-imidazo[4,5-b]pyridin-2-yl}oxy)cyclobutyl]propan-2-ol] | 440 | 47 |  |
| OC[C@H]1OC[C@H](Oc2nc3nc(-c4ccc(-c5ccccc5)cc4)c(Cl)cc3[nH]2)C[C@@H]1O [Example 140, (2R3S,5R)-5-[[6-chloro-5-(4-phenylphenyl)-1H-imidazo[4,5-b]pyridin-2-yl]oxy]-2-(hydroxymethyl)tetrahydropyran-3-ol] | 668 | 38 |  |
| O[C@@H]1CO[C@H]2[C@@H]1OC[C@H]2Oc1nc2nc(-c3ccc(-c4ccccc4)cc3)c(Cl)cc2[nH]1 [Example 159, 1,4:3,6-dianhydro-2-O-[5-(biphenyl-4-yl)-6-chloro-1H-imidazo[4,5-b]pyridin-2-yl]-D-mannitol] | 373 | 4 |  |
| O[C@@H]1CO[C@H]2[C@@H]1OC[C@H]2Oc1nc2nc(-c3ccc(-c4ccc(-n5cccn5)cc4)cc3)c(Cl)cc2[nH]1 [Example 163, (3R,3aR,6R,6aR)-6-[[6-chloro-5-[4-(4-pyrazol-1-ylphenyl)phenyl]-1H-imidazo[4,5-b]pyridin-2-yl]oxy]-2,3,3a,5,6,6a-hexahydrofuro[3,2-b]furan-3-ol] | 362 | 0.3 |  |
| CC(C)(O)Cn1cc2c(n1)CN(c1ccc(-c3nc4nc(O[C@@H]5CO[C@H]6[C@@H]5OC[C@H]6O)[nH]c4cc3Cl)cc1)C2 [Example 171, (3R,3aR,6R,6aR)-6-[[6-chloro-5-[4-[2-(2-hydroxy-2-methyl-propyl)-4,6-dihydropyrrolo[3,4-c]pyrazol-5-yl]phenyl]-1H-imidazo[4,5-b]pyridin-2-yl]oxy]-2,3,3a,5,6,6a-hexahydrofuro[3,2-b]furan-3-ol] | 252 | 1 |  |
| CC(C)(F)Cn1cc2c(n1)CN(c1ccc(-c3nc4nc(O[C@@H]5CO[C@H]6[C@@H]5OC[C@H]6O)[nH]c4cc3Cl)cc1)C2 [Example 172] | 249 | 2 |  |
| O[C@@H]1CO[C@H]2[C@@H]1OC[C@H]2Oc1nc2nc(-c3ccc(-n4cc5c(n4)CNC5)cc3)c(Cl)cc2[nH]1 [Example 177] | 368 | 18 |  |
| O=S(=O)(NC1CC1)n1cc2c(n1)CN(c1ccc(-c3nc4nc(O[C@@H]5CO[C@H]6[C@@H]5OC[C@H]6O)[nH]c4cc3Cl)cc1)C2 [Example 178] | 223 | 1 |  |
| O[C@@H]1CO[C@H]2[C@@H]1OC[C@H]2Oc1nc2nc(-c3ccc(-c4ccc(-n5cccn5)nc4)cc3)c(Cl)cc2[nH]1 [Example 179, (3R,3aR,6R,6aR)-6-[[6-chloro-5-[4-(6-pyrazol-1-yl-3-pyridyl)phenyl]-1H-imidazo[4,5-b]pyridin-2-yl]oxy]-2,3,3a,5,6,6a-hexahydrofuro[3,2-b]furan-3-ol] | 292 | 0.9 |  |
| O[C@@H]1CO[C@H]2[C@@H]1OC[C@H]2Oc1nc2nc(-c3ccc(-c4ccc(-n5cncn5)cc4)cc3)c(Cl)cc2[nH]1 [Example 180, (3R,3a,6R,6aR)-6-[[6-chloro-5-[4-[4-(1,2,4-triazol-1-yl)phenyl]phenyl]-1H-imidazo[4,5-b]pyridin-2-yl]oxy]-2,3,3a,5,6,6a-hexahdrofuro[3,2-b]furan-3-ol] | 350 | 0.3 |  |
| CC(C)(O)Cc1cnn(-c2ccc(-c3ccc(-c4nc5nc(O[C@@H]6CO[C@H]7[C@@H]6OC[C@H]7O)[nH]c5cc4Cl)cc3)cc2)c1 [Example 190] | 374 | 1 |  |
| CC(C)(O)Cc1cnn(-c2ccc(-c3ccc(-c4nc5nc(O[C@@H]6CO[C@H]7[C@@H]6OC[C@H]7O)[nH]c5cc4Cl)cc3)nc2)c1 [Example 202, (3R,3aR,6R,6aR)-6-[[6-chloro-5-[4-[5-[4-(2-hydroxy-2-methyl-propyl)pyrazol-1-yl]-2-pyridyl]phenyl]-1H-imidazo[4,5-b]pyridin-2-yl]oxy]-2,3,3a,5,6,6a-hexahydrofuro[3,2-b]furan-3-ol] | 372 | 1 |  |
| O[C@@H]1CO[C@@H]2C(Oc3nc4nc(-c5ccc(-c6ccc(-c7nnn[nH]7)cc6)cc5)c(Cl)cc4[nH]3)CO[C@H]12 (stereo partly drawn) [Example 207, (3R,3aR,6R,6R)-6-[[6-chloro-5-[4-[4-(1H-tetrazol-5-yl)phenyl]phenyl]-1H-imidazo[4,5-b]pyridin-2-yl]oxy]-2,3,3a,5,6,6a-hexahydrofuro[3,2-b]furan-3-ol] | 289 | 0.5 |  |
| O[C@@H]1CO[C@H]2[C@@H]1OC[C@H]2Oc1nc2nc(-c3ccc(C#CC4CCNCC4)cc3)c(Cl)cc2[nH]1 [Example 214, (3R,3aR,6R,6aR)-6-((6-chloro-5-(4-(piperidin-4-ylethynyl)phenyl)-1H-imidazo[4,5-b]pyridin-2-yl)oxy)hexahydrofuro[3,2-b]furan-3-ol] | 386 | 6 |  |
